The test system of the experiment is histamine production in RAW 264.7 cells (macrophages). Nature of the experiment: Histamine content in macrophages stressed with CGRP. The format is cell-based. The following applies: RAW 264.7, 50 μg/ml 2 h, then 10 nM CGRP 16 h; reduction compared with that of the extract. As for the experimental part:
To determine whether the plant cell culture extract according to the invention was able to reduce the production of histamine induced by the CGRP peptide in the immune system cells, an assay was conducted for the quantization of the histamine content in macrophages subjected to a stress condition by the CGRP neuropeptide.
RAW 264.7 cells were seeded in 96-well plates in an initial number of 5×10^4, and after 16 h, they were treated with different doses of the extract or with the anti-histamine compound cetirizine dihydrochloride (50 μg/ml), used as a positive control of the experiment. After 2 h of treatment with the extract or with cetirizine, the production of histamine was induced by the treatment with 10 nM of CGRP and, after 16 h, the amount of histamine was measured by adding 100 μl of methanol containing 0.4 M NaOH and 1 mg/ml of o-Phthaldialdehyde (OPT). After 10 minutes of incubation at room temperature, 50 μl of 0.1M HCl was added to each well to stop the reaction. Fluorescence was measured at 443 nm using a 360 nm excitation wavelength from the multi-plate reader, Victor3 (Perkin Elmer). The histamine content was calculated as a percentage of the value of the control cells stressed with 10 nM CGRP, arbitrarily set as 100%.

Where a name gives a salt, the structure may show the parent alone.

For the compound `O=C(O)COCCN1CCN(C(c2ccccc2)c2ccc(Cl)cc2)CC1` (stereo not shown) [cetirizine, cetirizine dihydrochloride], the “production of histamine in macrophages, positive control” value was “similarly”.

The record behind these values is patent publication US20220088100A1, “COSMETIC, PHARMACEUTICAL AND NUTRACEUTICAL USE OF AN EXTRACT DERIVED FROM CANNABISSATIVA CELL CULTURES” (ARTERRA BIOSCIENCE S.P.A., priority 2018, published 2022).
